Experimental findings from US20080267888A1, “Heterocyclic Derivatives” (priority 2005, published 2008) are described below.

Assay [1] relates to Streptozotocin induced diabetic mice. The assay is described as follows: Antidiabetic activity in streptozotocin induced diabetic mice. It is filed as in vivo, Swiss albino mice. Conditions: plasma, 50 mg/kg oral for 7 days, female mice, vs control group. How it is done: Antidiabetic Activity in Streptozotocin Induced Diabetic Mice
Female Swiss albino mice, at the age of 10 weeks were used in the study. Diabetes was induced in the animals by injecting streptozotocin by i.p. route at a dose of 200-mg/kg-body weight. 48 hours after streptozotocin administration, the animals were kept fasting for 6 hours. Subsequently blood was collected, plasma separated and the glucose was estimated. Animals showing greater than 200 mg/dl glucose levels were considered as diabetic and these animals were randomly distributed into various groups. The compounds 2 listed in the table 3 were administered at a dose of 50-mg/kg body weight by oral route for 7 days. Later the animals were fasted for 6 hours, the blood was collected and the plasma was separated. Biochemical estimations like glucose, cholesterol and triglycerides were carried out using the plasma. The effect of the compounds mentioned in the table was expressed in terms of percentage reduction in biochemical values as compared to the control group.

The target of assay [2] is T1, DPP IV (Homo sapiens, UniProt P27487).
T1 construct: using human plasma as a source of DPP IV; from tissue; host or cells: human plasma
T1 sequence (P27487 39-766 limits assumed): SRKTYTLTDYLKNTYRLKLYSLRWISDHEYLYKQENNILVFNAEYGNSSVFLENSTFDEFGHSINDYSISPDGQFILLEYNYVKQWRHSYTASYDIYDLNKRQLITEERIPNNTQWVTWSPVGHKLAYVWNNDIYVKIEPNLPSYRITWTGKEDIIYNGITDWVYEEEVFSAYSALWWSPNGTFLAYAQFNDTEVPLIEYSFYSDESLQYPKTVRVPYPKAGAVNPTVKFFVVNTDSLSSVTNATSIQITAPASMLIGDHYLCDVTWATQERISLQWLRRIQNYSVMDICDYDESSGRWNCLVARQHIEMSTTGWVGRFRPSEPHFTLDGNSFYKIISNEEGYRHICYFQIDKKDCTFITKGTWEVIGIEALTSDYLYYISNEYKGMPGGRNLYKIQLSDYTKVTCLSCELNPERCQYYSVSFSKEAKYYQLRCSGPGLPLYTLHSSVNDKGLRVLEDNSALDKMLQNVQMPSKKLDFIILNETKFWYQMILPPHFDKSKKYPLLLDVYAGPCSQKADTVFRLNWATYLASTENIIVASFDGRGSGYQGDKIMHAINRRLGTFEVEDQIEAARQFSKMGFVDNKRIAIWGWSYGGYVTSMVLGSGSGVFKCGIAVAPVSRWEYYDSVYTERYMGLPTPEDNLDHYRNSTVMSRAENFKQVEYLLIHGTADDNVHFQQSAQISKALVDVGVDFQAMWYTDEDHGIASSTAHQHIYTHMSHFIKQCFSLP
The assay is described as follows: DPP IV assay with human plasma as source of DPP IV. Type of assay: biochemical. The note with it: 1 hr incubation, substrate H-gly-pro AMC, vs vehicle control. As for the experimental part: DPP IV assay is carried by using human plasma as a source of DPP IV. The compounds were incubated at a concentration of 1 and 10 μM in an assay buffer containing the DPP IV enzyme for 1 hr, and then the substrate H-gly-pro AMC was added and further incubated for 20 minutes. Subsequently the reaction was stopped on addition of 25% glacial acetic acid. The plates were read in a spectrofluorimeter to get RFU on setting the excitation wavelength of 360 nm and emission wavelength of 460 nm. The percentage inhibition is calculated as compared to the vehicle control.

As to `O=C1COCC(Cc2ccc(Oc3ccc(/C=C4\SC(=O)NC4=O)cc3)cc2)N1` (stereo not shown) [Example 1, 5-[4-(4-{[5-oxomorpholin-3-yl]methyl}phenoxy)benzylidene]-1,3-thiazolidine-2,4-dione], in assay [1], the “% Reduction Glucose” value is listed as 41.6%.
`O=C1COCC(Cc2ccc(Oc3ccc(/C=C4\SC(=S)NC4=O)cc3)cc2)N1` (stereo not shown) [Example 2, 5-(4-{4-[(4-oxo-2-thioxo-1,3-thiazolidin-5-ylidene)methyl]phenoxy}benzyl)morpholin-3-one]: in assay [1], the “% Reduction Glucose” value came to 42.6% and the “% Reduction Triglyceride” value is listed as 44.4%.
In the case of `O=C1COCC(Cc2ccc(Oc3ccc(/C=C4\SC(=O)NC4=O)cc3Cl)cc2)N1` (stereo not shown) [Example 7, 5-(3-chloro-4-{4-[(5-oxomorpholin-3-yl)methyl]phenoxy}benzylidene)-1,3-thiazolidine-2,4-dione], in assay [1], the “% Reduction Glucose” value came to 44.5% and the “% Reduction Triglyceride” value is on record as 60.9%.
Consider `O=C1COCC(Cc2ccc(Oc3ccc(/C=C4/C(=O)Nc5ccccc54)cc3Cl)cc2)N1` (stereo not shown) [Example 9], for which, in assay [2], the inhibition (usually the relative decrease from the control value, in per cent) at 1 µM is 6.3% and testing at 10 µM gave an inhibition of 7.5%.
For the compound `O=C1COCC(Cc2ccc(Oc3ccc(/C=C4/C(=O)Nc5ccccc54)cc3F)cc2)N1` (stereo not shown) [Example 15], in assay [2], 1 µM produced 12.1% inhibition and testing at 10 µM gave an inhibition of 9.1%.
Consider `O=C1COCC(Cc2ccc(Oc3ccc(/C=C4\SC(=S)NC4=O)cc3C(F)(F)F)cc2)N1` (stereo not shown) [Example 18, 5-(4-{4-[(4-oxo-2-thioxo-1,3-thiazolidin-5-ylidene)methyl]-2-(trifluoromethyl)phenoxy}benzyl)morpholin-3-one], for which, in assay [2], at 1 µM the inhibition was 7.3% and the inhibition at 10 µM was determined as 11.8%.
Taken in the same sequence, the figures for `CN1C(=O)COCC1Cc1ccc(Oc2ccc(/C=C3\SC(=O)NC3=O)cc2)cc1` (stereo not shown) [Example 19, 5-(4-{4-[(4-methyl-5-oxomorpholin-3-yl)methyl]phenoxy}benzylidene)-1,3-thiazolidine-2,4-dione] were 8.9% and 15.2%.
